Measurements from PubChem BioAssay (NCI).
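Cultured in 96-well plates, cells were exposed to test compound for 48 hours across five concentrations. The concentration for 50% growth inhibition is given as GI50. TGI marks complete inhibition of growth.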

Legend:
Test in all cases: NCI tumour cell line growth inhibition, 48 h
MCF7 breast = test system: MCF7 breast
OVCAR-3 ovarian = test system: OVCAR-3 ovarian
PC-3 prostate = test system: PC-3 prostate
NCI-H460 lung = test system: NCI-H460 lung
SF-295 CNS = test system: SF-295 CNS
SNB-19 CNS = test system: SNB-19 CNS
HCC-2998 colon = test system: HCC-2998 colon
NCI-H522 lung = test system: NCI-H522 lung
RXF 393 renal = test system: RXF 393 renal
MOLT-4 leukemia = test system: MOLT-4 leukemia

COc1cccc(Sc2ccc([N+](=O)[O-])c3no[n+]([O-])c23)c1
GI50 (MCF7 breast): 4.87 µM
TGI (MCF7 breast): 20.6 µM
GI50 (OVCAR-3 ovarian): 2.83 µM
TGI (OVCAR-3 ovarian): 7.48 µM
GI50 (PC-3 prostate): 16.9 µM
TGI (PC-3 prostate): > 54.5 µM
GI50 (NCI-H460 lung): 18.7 µM
TGI (NCI-H460 lung): 40.8 µM
GI50 (SF-295 CNS): 24.5 µM
TGI (SF-295 CNS): 62.8 µM
GI50 (SNB-19 CNS): 35 µM
TGI (SNB-19 CNS): > 88.3 µM
GI50 (HCC-2998 colon): 22.3 µM
TGI (HCC-2998 colon): 46.3 µM
GI50 (NCI-H522 lung): 1.98 µM
TGI (NCI-H522 lung): 3.93 µM
GI50 (RXF 393 renal): 8.99 µM
TGI (RXF 393 renal): 23.8 µM
GI50 (MOLT-4 leukemia): 4.27 µM
TGI (MOLT-4 leukemia): 16.5 µM

CCN1C(=O)N(CC)C2C1NN=c1s/c(=C\c3cccs3)c(=O)n12 (configuration not stated)
GI50 (MCF7 breast): 0.0496 µM
TGI (MCF7 breast): > 100 µM
GI50 (OVCAR-3 ovarian): 0.0462 µM
GI50 (PC-3 prostate): 0.12 µM
TGI (PC-3 prostate): > 100 µM
GI50 (NCI-H460 lung): 0.119 µM
GI50 (SF-295 CNS): 0.069 µM
TGI (SF-295 CNS): > 100 µM
GI50 (SNB-19 CNS): 0.506 µM
TGI (SNB-19 CNS): > 100 µM
GI50 (HCC-2998 colon): 0.257 µM
TGI (HCC-2998 colon): > 100 µM
GI50 (NCI-H522 lung): 0.0974 µM
TGI (NCI-H522 lung): > 100 µM
GI50 (RXF 393 renal): 0.141 µM
TGI (RXF 393 renal): > 100 µM
GI50 (MOLT-4 leukemia): 0.396 µM
TGI (MOLT-4 leukemia): > 100 µM

Clc1ccccc1[C@@H]1C[C@@H]2Cc3cc(Br)c4ccccc4c3N1O2
GI50 (MCF7 breast): 3.61 µM
TGI (MCF7 breast): > 100 µM
GI50 (OVCAR-3 ovarian): 3.29 µM
TGI (OVCAR-3 ovarian): 11.1 µM
GI50 (PC-3 prostate): 5.85 µM
TGI (PC-3 prostate): > 100 µM
GI50 (NCI-H460 lung): 4.08 µM
TGI (NCI-H460 lung): > 100 µM
GI50 (SF-295 CNS): 3.49 µM
TGI (SF-295 CNS): > 100 µM
GI50 (SNB-19 CNS): 8.11 µM
TGI (SNB-19 CNS): > 100 µM
GI50 (HCC-2998 colon): 4.19 µM
TGI (HCC-2998 colon): > 100 µM
GI50 (NCI-H522 lung): 2.31 µM
TGI (NCI-H522 lung): 6.51 µM
GI50 (RXF 393 renal): 1.73 µM
TGI (RXF 393 renal): 4.92 µM
GI50 (MOLT-4 leukemia): 6.94 µM
TGI (MOLT-4 leukemia): > 100 µM

COc1cc(OC)cc(-c2nc3sccn3c2/C=N/N=C(N)N)c1
GI50 (MCF7 breast): 9.41 µM
TGI (MCF7 breast): 20.1 µM
GI50 (OVCAR-3 ovarian): 5.52 µM
TGI (OVCAR-3 ovarian): 12.3 µM
GI50 (PC-3 prostate): 9.23 µM
TGI (PC-3 prostate): 16.2 µM
GI50 (NCI-H460 lung): 13.3 µM
TGI (NCI-H460 lung): 42.9 µM
GI50 (SF-295 CNS): 8.94 µM
TGI (SF-295 CNS): 17.7 µM
GI50 (SNB-19 CNS): 9.29 µM
TGI (SNB-19 CNS): 19.3 µM
GI50 (HCC-2998 colon): 7.55 µM
TGI (HCC-2998 colon): 14.6 µM
GI50 (NCI-H522 lung): 15.4 µM
TGI (NCI-H522 lung): > 50 µM
GI50 (RXF 393 renal): 7.96 µM
TGI (RXF 393 renal): 16.7 µM
GI50 (MOLT-4 leukemia): 10.9 µM
TGI (MOLT-4 leukemia): 18.6 µM

CCN(CC)CCC(=O)OC1C(C)=CC(C)C(=O)CC(C(C)CC2CCC(O)C(OC)C2)OC(=O)C2CCCCN2C(=O)C(=O)[C@@]2(O)OC(CCC2C)CC(OC)\C(C)=C/C=C/C=C/C(C)CC(C)C(=O)C1OC (some centres not stated)
TGI (MCF7 breast): 16.1 µM
TGI (OVCAR-3 ovarian): 23.5 µM
TGI (PC-3 prostate): 22.4 µM
TGI (NCI-H460 lung): 23.8 µM
TGI (SF-295 CNS): 18.5 µM
TGI (SNB-19 CNS): 21.6 µM
TGI (HCC-2998 colon): 21.8 µM
TGI (NCI-H522 lung): 26.5 µM
TGI (RXF 393 renal): 15.2 µM

O=C1NC(=O)[C@@]2(CC[C@@H](O)C2)c2ccncc21
TGI (MCF7 breast): > 100 µM
TGI (PC-3 prostate): > 100 µM
TGI (NCI-H460 lung): > 100 µM
TGI (SNB-19 CNS): > 100 µM
TGI (HCC-2998 colon): > 100 µM
TGI (NCI-H522 lung): > 100 µM
TGI (RXF 393 renal): > 100 µM
TGI (MOLT-4 leukemia): > 100 µM

O=C(O)C(Br)C(Br)C(=O)O (configuration not stated)
TGI (MCF7 breast): > 100 µM
TGI (OVCAR-3 ovarian): > 100 µM
TGI (PC-3 prostate): > 100 µM
TGI (NCI-H460 lung): > 100 µM
TGI (SF-295 CNS): > 100 µM
TGI (SNB-19 CNS): > 100 µM
TGI (HCC-2998 colon): > 100 µM
TGI (NCI-H522 lung): > 100 µM
TGI (RXF 393 renal): > 100 µM

COC12C=C/C(=C(/C(=O)OCCSc3ccnn3C)C(=O)CCCCCCCCC3(OC)C=C/C(=C(/C(=O)OCCSc4ccnn4C)C(=O)CCCCCCCC1)O3)O2
GI50 (MCF7 breast): 0.927 µM
TGI (MCF7 breast): 15.2 µM
GI50 (OVCAR-3 ovarian): 0.966 µM
TGI (OVCAR-3 ovarian): 2.77 µM
GI50 (PC-3 prostate): 1.51 µM
TGI (PC-3 prostate): > 32.5 µM
GI50 (NCI-H460 lung): 1.07 µM
TGI (NCI-H460 lung): 3.76 µM
GI50 (SF-295 CNS): 0.948 µM
TGI (SF-295 CNS): 2.93 µM
GI50 (SNB-19 CNS): 1.88 µM
TGI (SNB-19 CNS): > 32.5 µM
GI50 (HCC-2998 colon): 0.584 µM
TGI (HCC-2998 colon): 1.11 µM
GI50 (NCI-H522 lung): 0.648 µM
TGI (NCI-H522 lung): 1.62 µM
GI50 (RXF 393 renal): 0.665 µM
TGI (RXF 393 renal): 1.17 µM
